Consider three molecules from US5567722A, “Cyanoguanidines as K-channel blockers” (The Upjohn Company, priority 1995, dated 1996).

Like-named read-outs stand apart in the source and are kept apart here.

In experiment [1] the test system is K+ channel of rabbit mesenteric artery (RMA). Nature of the experiment: K+ channel antagonism: inhibition of pinacidil-induced relaxation of norepinephrine-contracted rabbit mesenteric artery (RMA) rings. It counts as cell-based. The following applies: Oryctolagus cuniculus. How it is done:
The results for potassium channel blocking were obtained by using isolated rabbit mesenteric artery (RMA) procedures. Norepinephrine (5 μM) was used to contract the RMA rings twice, with an hour separating the two contractions. During this hour the tissues equilibrated in physiological salt solution at a resting tension of 1 gram. Upon the plateau of the second contraction 1 μM pinacidil was added to all tissues and the resulting relaxation time course was studied for thirty minutes. […] By studying the ability of the test compounds to inhibit this pinacidil-induced relaxation, the degree of potassium antagonism could be determined. The compounds were applied to the tissues for one hour between the two contractions and the pinacidil-induced relaxation was studied in the continuing presence of the compounds. Thus, the total time of pretreatment with the test compound was 75 minutes before the addition of pinacidil. […]
Data for K^+ channel antagonist activity on rabbit mesenteric artery (RMA) and natriuretic efficacy after […] (IP) administration to rats are collected in Tables III and IV. It was known, for example, that a compound where both methyl groups on the benzylic carbon of Example 9 had been removed was a weak PCO rather than a K^+ channel antagonist. Similarly a compound in which the phenyl was attached directly to the guanidine nitrogen was also a K^+ channel agonist.
^a This is a measure of a compound's ability to inhibit the relaxatio
of norepinephrine (5 μM) contracted rabbit mesenteric artery rings by
pinacidil (1 μM). It is expressed as percent inhibition (mean ± sem
at an inhibitor concentration of 5 μM. Compounds with 65% or g greater
inhibition at 5 μM are considered to be active, with 2065\% inhibition

The subject of another experiment is K+ channel. The following applies: 1 μM; norepinephrine-contracted RMA rings; cited from earlier work.
Experiment [2] in a line: Diuretic screen: 5 h net natriuretic efficacy (urinary Na+ excretion) in rats. It counts as in vivo, female Harlan Sprague-Dawley rats.

For the molecule `CC(N/C(=N\C#N)Nc1ccncc1)C(C)(C)C` (stereo not drawn) [Pinacidil], the inhibition at 5 µM in experiment [1] (0.25 h, Table III, inhibition of relaxation by pinacidil 1 μM at 15 min, mean ± sem (number of rings), >=65% considered active, <20% inactive, read-out: RMA K+ Channel Antagonism % I at 5 μM) came out at 0%. For the same molecule, the “K+ channel dependent vasodilation (in words)” value in the experiment on K+ channel was “maximal K^+ channel dependent vasodilation”. Further, the “diuretic response (in words)” value in experiment [2] (5 mg/kg oral dosage) is on record as “Antidiuresis”. Also, the “5 h Net Natriuretic Efficacy” value in experiment [2] (Table III, 5 mg/kg oral dosage (footnote j)) is recorded as -60 μEq Na+/mg/kg.
For the molecule `CCC(NC(=NC#N)Nc1cccnc1)c1cccc(Br)c1` (stereo not drawn) [Compound 39], the inhibition at 0.5 µM in experiment [1] (Table IV, 0.5 μM, lowest concentration giving >20% inhibition or lowest tested, read-out: RMA K+ Channel Antagonism % I (conc. μM)) turned out to be 87.2%.
On to `CC[C@@H](NC(=NC#N)Nc1ccc(N)nc1)c1ccccc1` [Compound 44, (R)-N-(6-Amino-3-pyridyl)-N"-cyano-N'-(1-phenylpropyl)guanidine], for which the inhibition at 5 µM in experiment [1] (Table IV, lowest concentration giving >20% inhibition or lowest tested, read-out: RMA K+ Channel Antagonism % I (conc. μM)) is 60%.
